US20040162221A1, “Pyrazole derivatives and herbicides containing the same” (IDEMITSU KOSAN CO., LTD., priority 1998, published 2004)

What was measured:
common lambsquaters = test: Upland pre-emergence treatment test, common lambsquaters; format: in vivo, common lambsquaters (Chenopodium album); conditions: pre-emergence soil surface spray, 80 g/ha, 20th day after treatment, greenhouse; also: ranges in brackets are in %
From the text: (§1) 97 Parts by weight of talc (trade name: Zeaklite, supplied by Zeaklite Industry) as a carrier, 1.5 parts by weight of alkylarylsulfonic acid salt (trade name: Neoplex, supplied by Kao-Atlas K.K.) as a surfactant and 1.5 parts by weight of a nonionic and anionic surfactant (trade names Sorpol 800A, supplied by Toho Chemical Co., Ltd.) were uniformly pulverized and mixed to prepare a carrier for a wettable powder.
(§2) 90 Parts by weight of the above carrier for a wettable powder and 10 parts by weight of one of the compounds of the present invention were uniformly pulverized and mixed to obtain herbicides. Further, in Comparative Herbicide Examples, comparative herbicides were also prepared from the following compounds (A) and (B) in the same manner.
(§3) Herbicidal efficacy and phytotoxicity to crops were determined on the basis of the ratio of remaining plant weight to plant weight in non-treated plot=(remaining plant weight in treated plot/plant weight in non-treated-plot)×100. The ratings were applied to the following biological tests.
(§4) Seeds of weeds such as velvetleaf, common lambsquaters, redroot pigweed, common ragweed, green foxtail and large crabgrass and seeds of corn were sown in 1/5,000-are Wagner pots filled with upland soil, and covered with upland soil. Then, a predetermined amount of the herbicide prepared in the above (1) was suspended in water, and the suspension was uniformly sprayed onto the soil surface at a rate of 2,000 liters/hectare. Then, the seeds were grown in a greenhouse, and on the 20th day after the treatment, the herbicide was evaluated for herbicidal efficacy and phytotoxicity to corn on the basis of the ratings shown in (2).

common ragweed [1] = test: Upland pre-emergence treatment test, common ragweed; format: in vivo, common ragweed (Ambrosia artemisilfolia); conditions: pre-emergence soil surface spray, 80 g/ha, 20th day after treatment, greenhouse; also: ranges in brackets are in %
From the text: as §1, §2, §3, §4

corn [2] = test: Upland post-emergence treatment test, phytotoxicity to corn; format: in vivo; conditions: post-emergence spray at 3-4 leaf stage, 80 g/ha, 30th day after treatment, greenhouse; also: ranges in brackets are in %
From the text: as §1, §2, §3
(§5) Seeds of weeds velvetleaf, redroot pigweed, common ragweed, green foxtail and large crabgrass and seeds of corn were sown in 1/5,000-are Wagner pots filled with upland soil, and covered with upland soil. The seeds were grown in a greenhouse, and at the stage of 3˜4 leaves of these plants, a predetermined amount of the herbicide prepared in the above (1) was suspended in water, and the suspension was uniformly sprayed onto leaf and stalk portions at a rate of 2,000 liters/hectare. Then, the plants were grown in the greenhouse, and on the 30th day after the treatment, the herbicide was evaluated for herbicidal efficacy and phytotoxicity to the corn on the basis of the ratings shown in (2).

green foxtail [3] = test: Upland pre-emergence treatment test, green foxtail; format: in vivo, green foxtail (Setaria viridis); conditions: pre-emergence soil surface spray, 80 g/ha, 20th day after treatment, greenhouse; also: ranges in brackets are in %
From the text: as §1, §2, §3, §4

velvetleaf [4] = test: Upland pre-emergence treatment test, velvetleaf; format: in vivo, velvetleaf (Abutilon theophrasti); conditions: pre-emergence soil surface spray, 80 g/ha, 20th day after treatment, greenhouse; also: ranges in brackets are in %
From the text: as §1, §2, §3, §4

velvetleaf [5] = test: Upland post-emergence treatment test, velvetleaf; format: in vivo, velvetleaf (Abutilon theophrasti); conditions: post-emergence spray at 3-4 leaf stage, 80 g/ha, 30th day after treatment, greenhouse; also: ranges in brackets are in %
From the text: as §1, §2, §3, §5

corn [6] = test: Upland pre-emergence treatment test, phytotoxicity to corn; format: in vivo; conditions: pre-emergence soil surface spray, 80 g/ha, 20th day after treatment, greenhouse; also: ranges in brackets are in %
From the text: as §1, §2, §3, §4

common ragweed [7] = test: Upland post-emergence treatment test, common ragweed; format: in vivo, common ragweed (Ambrosia artemisilfolia); conditions: post-emergence spray at 3-4 leaf stage, 80 g/ha, 30th day after treatment, greenhouse; also: ranges in brackets are in %
From the text: as §1, §2, §3, §5

green foxtail [8] = test: Upland post-emergence treatment test, green foxtail; format: in vivo, green foxtail (Setaria viridis); conditions: post-emergence spray at 3-4 leaf stage, 80 g/ha, 30th day after treatment, greenhouse; also: ranges in brackets are in %
From the text: as §1, §2, §3, §5

large crabgrass [9] = test: Upland pre-emergence treatment test, large crabgrass; format: in vivo; conditions: pre-emergence soil surface spray, 80 g/ha, 20th day after treatment, greenhouse; also: ranges in brackets are in %
From the text: as §1, §2, §3, §4

redroot pigweed [10] = test: Upland post-emergence treatment test, redroot pigweed; format: in vivo, redroot pigweed (Amaranthus retroflexus); conditions: for Herbicidal Efficacy CC = Redroot Pigweed: post-emergence spray at 3-4 leaf stage, 80 g/ha, 30th day after treatment, greenhouse; as to Herbicidal Efficacy CC = Redroot Pigweed: ranges in brackets are in %
From the text: as §1, §2, §3, §5

redroot pigweed [11] = test: Upland pre-emergence treatment test, redroot pigweed; format: in vivo, redroot pigweed (Amaranthus retroflexus); conditions: for Herbicidal Efficacy CC = Rough Pigweed: pre-emergence soil surface spray, 80 g/ha, 20th day after treatment, greenhouse; as to Herbicidal Efficacy CC = Rough Pigweed: ranges in brackets are in %
From the text: as §1, §2, §3, §4

large crabgrass [12] = test: Upland post-emergence treatment test, large crabgrass; format: in vivo; conditions: post-emergence spray at 3-4 leaf stage, 80 g/ha, 30th day after treatment, greenhouse; also: ranges in brackets are in %
From the text: as §1, §2, §3, §5

SMILES | Herbicidal Efficacy BB = Common lambsquaters (common lambsquaters) | Herbicidal Efficacy DD = Common ragweed (common ragweed [1]) | Phytotoxicity Corn (corn [2]) | Herbicidal Efficacy EE = Green foxtail (green foxtail [3]) | Herbicidal Efficacy AA = Velvetleaf (velvetleaf [4]) | Herbicidal Efficacy AA = Velvetleaf (velvetleaf [5]) | Phytotoxicity Corn (corn [6]) | Herbicidal Efficacy DD = Common ragweed (common ragweed [7]) | Herbicidal Efficacy EE = Green foxtail (green foxtail [8]) | Herbicidal Efficacy FF = Large crabgrass (large crabgrass [9]) | Herbicidal Efficacy CC = Redroot Pigweed (redroot pigweed [10]) | Herbicidal Efficacy CC = Rough Pigweed (redroot pigweed [11]) | Herbicidal Efficacy FF = Large crabgrass (large crabgrass [12]) | herbicidal efficacy against redroot pigweed (in words) (redroot pigweed [10]; post-emergence, Tables 8 and 9) | herbicidal efficacy against redroot pigweed (in words) (redroot pigweed [11]; pre-emergence, text summary of Table 7)
Cc1c(C(=O)c2cnn(C)c2OS(C)(=O)=O)ccc2c1C(C)(C)CS2(=O)=O [Compound 2] | 5 (0) | 5 (0) | − (100) | 5 (0) | 5 (0) | 5 (0) | − (100) | 5 (0) | 5 (0) | 5 (0) | 5 (0) | 5 (0) | 5 (0) | – | –
CCCS(=O)(=O)Oc1c(C(=O)c2cc(C)c3c(c2C)C(C)(C)CS3(=O)=O)cnn1CC [Compound (A), reference compound] | 2 (41-60) | 1 (61-80) | − (100) | 1 (61-80) | 2 (41-60) | 2 (41-60) | − (100) | 2 (41-60) | 1 (61-80) | 1 (61-80) | 0 (81-100) | 0 (81-100) | 1 (61-80) | clearly poor | clearly poor
Cc1c(C(=O)c2cnn(C)c2OCC(=O)c2ccccc2)ccc2c1C(C)(C)CS2(=O)=O [Compound 49, 5-(1′-methyl-5′-phenacyloxypyrazol-4′-yl)carbonyl-3,3,4-trimethyl-2,3-dihydrobenzothiophene-1,1-dioxide] | 5 (0) | 5 (0) | − (100) | 5 (0) | 5 (0) | 5 (0) | − (100) | 5 (0) | 5 (0) | 5 (0) | 5 (0) | 5 (0) | 5 (0) | – | –
